Measurements as given in paper PMC11842588, “A first-in-class selective inhibitor of ERK1/2 and ERK5 overcomes drug resistance with a single-molecule strategy” (Signal Transduction and Targeted Therapy, 2025).

Tests used:
Assay in all cases: Kinase profiling
Assay type in all cases: biochemical
Txk(h) = target: T1, Txk(h) (Homo sapiens, UniProt P42681)
T1 construct: purchased Eurofins Cerep SA (KinaseProfiler)
Method: (§1) 380 kinases inhibitory activities of SKLB-D18 were conducted by Eurofins Cerep SA. The result was illustrated by kinase tree (http://www.kinhub.org/kinmap/).

CDK2/cyclinE(h) = target: T2, CDK2/cyclinE(h) (Homo sapiens, UniProt P24941)
T2 construct: purchased Eurofins Cerep SA (KinaseProfiler)
Method: as §1

GCK(h) = target: T3, GCK(h) (Homo sapiens, UniProt Q12851)
T3 construct: purchased Eurofins Cerep SA (KinaseProfiler)
Method: as §1

CaMKIV(h) = target: T4, CaMKIV(h) (Homo sapiens, UniProt Q16566)
T4 construct: purchased Eurofins Cerep SA (KinaseProfiler)
Method: as §1

MEKK3(h) = target: T5, MEKK3(h) (Homo sapiens, UniProt Q99759)
T5 construct: purchased Eurofins Cerep SA (KinaseProfiler)
Method: as §1

ASK1(h) = target: T6, ASK1(h) (Homo sapiens, UniProt Q99683)
T6 construct: purchased Eurofins Cerep SA (KinaseProfiler)
Method: as §1

GRK4(h) = target: T7, GRK4(h) (Homo sapiens, UniProt P32298)
T7 construct: purchased Eurofins Cerep SA (KinaseProfiler)
Method: as §1

MAPK1(h) = target: T8, MAPK1(h) (Homo sapiens, UniProt P28482)
T8 construct: purchased Eurofins Cerep SA (KinaseProfiler)
Method: as §1

LATS2(h) = target: T9, LATS2(h) (Homo sapiens, UniProt Q9NRM7)
T9 construct: purchased Eurofins Cerep SA (KinaseProfiler)
Method: as §1

SBK1(h) = target: T10, SBK1(h) (Homo sapiens, UniProt Q52WX2)
T10 construct: purchased Eurofins Cerep SA (KinaseProfiler)
Method: as §1

TSSK3(h) = target: T11, TSSK3(h) (Homo sapiens, UniProt Q96PN8)
T11 construct: purchased Eurofins Cerep SA (KinaseProfiler)
Method: as §1

EGFR(h) = target: T12, EGFR(h) (Homo sapiens, UniProt P00533)
T12 construct: purchased Eurofins Cerep SA (KinaseProfiler)
Method: as §1

CDK14/cyclinY(h) = target: T13, CDK14/cyclinY(h) (Homo sapiens, UniProt O94921)
T13 construct: purchased Eurofins Cerep SA (KinaseProfiler)
Method: as §1

SAPK3(h) = target: T14, SAPK3(h) (Homo sapiens, UniProt P53778)
T14 construct: purchased Eurofins Cerep SA (KinaseProfiler)
Method: as §1

Plk3(h) = target: T15, Plk3(h) (Homo sapiens, UniProt Q9H4B4)
T15 construct: purchased Eurofins Cerep SA (KinaseProfiler)
Method: as §1

SAPK2a(h) = target: T16, SAPK2a(h) (Homo sapiens, UniProt Q16539)
T16 construct: purchased Eurofins Cerep SA (KinaseProfiler)
Method: as §1

Aurora-C(h) = target: T17, Aurora-C(h) (Homo sapiens, UniProt Q9UQB9)
T17 construct: purchased Eurofins Cerep SA (KinaseProfiler)
Method: as §1

CK1γ2(h) = target: T18, CK1γ2(h) (Homo sapiens, UniProt P78368)
T18 construct: purchased Eurofins Cerep SA (KinaseProfiler)
Method: as §1

SIK3(h) = target: T19, SIK3(h) (Homo sapiens, UniProt Q9Y2K2)
T19 construct: purchased Eurofins Cerep SA (KinaseProfiler)
Method: as §1

A-Raf(h) = target: T20, A-Raf(h) (Homo sapiens, UniProt P10398)
T20 construct: purchased Eurofins Cerep SA (KinaseProfiler)
Method: as §1

ROCK-I(h) = target: T21, ROCK-I(h) (Homo sapiens, UniProt Q13464)
T21 construct: purchased Eurofins Cerep SA (KinaseProfiler)
Method: as §1

FGFR1(h) = target: T22, FGFR1(h) (Homo sapiens, UniProt P11362)
T22 construct: purchased Eurofins Cerep SA (KinaseProfiler)
Method: as §1

ALK6(h) = target: T23, ALK6(h) (Homo sapiens, UniProt O00238)
T23 construct: purchased Eurofins Cerep SA (KinaseProfiler)
Method: as §1

DMPK(h) = target: T24, DMPK(h) (Homo sapiens, UniProt Q09013)
T24 construct: purchased Eurofins Cerep SA (KinaseProfiler)
Method: as §1

TAO3(h) = target: T25, TAO3(h) (Homo sapiens, UniProt Q9H2K8)
T25 construct: purchased Eurofins Cerep SA (KinaseProfiler)
Method: as §1

Met(h) = target: T26, Met(h) (Homo sapiens, UniProt P08581)
T26 construct: purchased Eurofins Cerep SA (KinaseProfiler)
Method: as §1

NEK3(h) = target: T27, NEK3(h) (Homo sapiens, UniProt P51956)
T27 construct: purchased Eurofins Cerep SA (KinaseProfiler)
Method: as §1

MYO3B(h) = target: T28, MYO3B(h) (Homo sapiens, UniProt Q8WXR4)
T28 construct: purchased Eurofins Cerep SA (KinaseProfiler)
Method: as §1

GRK5(h) = target: T29, GRK5(h) (Homo sapiens, UniProt P34947)
T29 construct: purchased Eurofins Cerep SA (KinaseProfiler)
Method: as §1

PDGFRα(h) = target: T30, PDGFRα(h) (Homo sapiens, UniProt P16234)
T30 construct: purchased Eurofins Cerep SA (KinaseProfiler)
Method: as §1

STK32C(h) = target: T31, STK32C(h) (Homo sapiens, UniProt Q86UX6)
T31 construct: purchased Eurofins Cerep SA (KinaseProfiler)
Method: as §1

PAK2(h) = target: T32, PAK2(h) (Homo sapiens, UniProt Q13177)
T32 construct: purchased Eurofins Cerep SA (KinaseProfiler)
Method: as §1

JNK3(h) = target: T33, JNK3(h) (Homo sapiens, UniProt P53779)
T33 construct: purchased Eurofins Cerep SA (KinaseProfiler)
Method: as §1

Flt1(h) = target: T34, Flt1(h) (Homo sapiens, UniProt P17948)
T34 construct: purchased Eurofins Cerep SA (KinaseProfiler)
Method: as §1

PDHK4(h) = target: T35, PDHK4(h) (Homo sapiens, UniProt Q16654)
T35 construct: purchased Eurofins Cerep SA (KinaseProfiler)
Method: as §1

TSSK4(h) = target: T36, TSSK4(h) (Homo sapiens, UniProt Q6SA08)
T36 construct: purchased Eurofins Cerep SA (KinaseProfiler)
Method: as §1

PRKG2(h) = target: T37, PRKG2(h) (Homo sapiens, UniProt Q13237)
T37 construct: purchased Eurofins Cerep SA (KinaseProfiler)
Method: as §1

PDHK2(h) = target: T38, PDHK2(h) (Homo sapiens, UniProt Q15119)
T38 construct: purchased Eurofins Cerep SA (KinaseProfiler)
Method: as §1

PKCμ(h) = target: T39, PKCμ(h) (Homo sapiens, UniProt Q15139)
T39 construct: purchased Eurofins Cerep SA (KinaseProfiler)
Method: as §1

MEKK2(h) = target: T40, MEKK2(h) (Homo sapiens, UniProt Q9Y2U5)
T40 construct: purchased Eurofins Cerep SA (KinaseProfiler)
Method: as §1

AAK1(h) = target: T41, AAK1(h) (Homo sapiens, UniProt Q2M2I8)
T41 construct: purchased Eurofins Cerep SA (KinaseProfiler)
Method: as §1

T15 sequence (Q9H4B4 whole entry): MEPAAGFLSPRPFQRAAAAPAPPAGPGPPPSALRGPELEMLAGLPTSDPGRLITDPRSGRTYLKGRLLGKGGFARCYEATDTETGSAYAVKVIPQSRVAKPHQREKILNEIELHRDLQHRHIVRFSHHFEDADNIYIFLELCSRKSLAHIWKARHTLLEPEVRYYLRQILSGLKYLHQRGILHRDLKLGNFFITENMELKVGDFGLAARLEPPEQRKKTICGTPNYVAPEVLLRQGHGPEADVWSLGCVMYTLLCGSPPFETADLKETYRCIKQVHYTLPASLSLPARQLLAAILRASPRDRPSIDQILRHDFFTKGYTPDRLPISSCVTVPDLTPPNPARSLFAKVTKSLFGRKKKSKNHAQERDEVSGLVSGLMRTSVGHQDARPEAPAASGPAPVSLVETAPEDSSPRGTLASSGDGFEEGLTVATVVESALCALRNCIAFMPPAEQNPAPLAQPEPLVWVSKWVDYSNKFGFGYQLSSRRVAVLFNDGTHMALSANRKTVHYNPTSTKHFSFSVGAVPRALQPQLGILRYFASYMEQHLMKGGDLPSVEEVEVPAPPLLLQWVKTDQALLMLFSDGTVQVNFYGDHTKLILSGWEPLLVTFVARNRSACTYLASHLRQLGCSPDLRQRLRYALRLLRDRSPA
T40 sequence (Q9Y2U5 whole entry): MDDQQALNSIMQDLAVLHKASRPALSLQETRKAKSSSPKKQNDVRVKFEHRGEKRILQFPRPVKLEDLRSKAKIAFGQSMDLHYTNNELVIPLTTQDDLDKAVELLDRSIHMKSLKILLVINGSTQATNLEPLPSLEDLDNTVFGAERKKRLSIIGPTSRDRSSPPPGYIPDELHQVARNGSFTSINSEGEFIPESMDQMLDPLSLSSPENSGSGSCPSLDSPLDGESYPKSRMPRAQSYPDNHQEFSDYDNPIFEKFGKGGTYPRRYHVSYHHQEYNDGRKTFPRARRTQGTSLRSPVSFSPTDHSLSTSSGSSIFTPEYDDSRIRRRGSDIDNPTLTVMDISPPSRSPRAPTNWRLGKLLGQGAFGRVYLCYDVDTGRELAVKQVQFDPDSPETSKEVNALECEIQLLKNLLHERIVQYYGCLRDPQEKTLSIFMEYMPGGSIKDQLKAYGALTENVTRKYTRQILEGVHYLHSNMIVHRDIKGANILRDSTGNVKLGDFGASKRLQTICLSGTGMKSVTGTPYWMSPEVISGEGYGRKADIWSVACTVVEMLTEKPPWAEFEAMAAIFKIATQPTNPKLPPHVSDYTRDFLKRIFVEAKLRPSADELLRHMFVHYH
T20 sequence (P10398 whole entry): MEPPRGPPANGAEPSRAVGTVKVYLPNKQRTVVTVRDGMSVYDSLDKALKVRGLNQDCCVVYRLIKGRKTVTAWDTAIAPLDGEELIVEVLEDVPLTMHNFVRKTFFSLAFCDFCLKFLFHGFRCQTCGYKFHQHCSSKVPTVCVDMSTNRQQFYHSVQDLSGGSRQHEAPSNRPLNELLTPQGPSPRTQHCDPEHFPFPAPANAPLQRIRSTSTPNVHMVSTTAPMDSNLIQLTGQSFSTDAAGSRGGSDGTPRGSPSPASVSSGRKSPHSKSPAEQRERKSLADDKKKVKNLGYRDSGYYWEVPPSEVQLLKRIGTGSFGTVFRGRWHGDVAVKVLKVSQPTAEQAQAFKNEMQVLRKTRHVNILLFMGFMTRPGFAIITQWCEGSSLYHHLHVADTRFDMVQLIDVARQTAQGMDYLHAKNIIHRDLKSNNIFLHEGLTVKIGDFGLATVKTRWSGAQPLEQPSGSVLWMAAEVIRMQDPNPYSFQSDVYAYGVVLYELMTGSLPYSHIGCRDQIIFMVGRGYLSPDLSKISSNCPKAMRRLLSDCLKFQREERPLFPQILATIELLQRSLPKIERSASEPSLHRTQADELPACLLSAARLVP
T25 sequence (Q9H2K8 whole entry): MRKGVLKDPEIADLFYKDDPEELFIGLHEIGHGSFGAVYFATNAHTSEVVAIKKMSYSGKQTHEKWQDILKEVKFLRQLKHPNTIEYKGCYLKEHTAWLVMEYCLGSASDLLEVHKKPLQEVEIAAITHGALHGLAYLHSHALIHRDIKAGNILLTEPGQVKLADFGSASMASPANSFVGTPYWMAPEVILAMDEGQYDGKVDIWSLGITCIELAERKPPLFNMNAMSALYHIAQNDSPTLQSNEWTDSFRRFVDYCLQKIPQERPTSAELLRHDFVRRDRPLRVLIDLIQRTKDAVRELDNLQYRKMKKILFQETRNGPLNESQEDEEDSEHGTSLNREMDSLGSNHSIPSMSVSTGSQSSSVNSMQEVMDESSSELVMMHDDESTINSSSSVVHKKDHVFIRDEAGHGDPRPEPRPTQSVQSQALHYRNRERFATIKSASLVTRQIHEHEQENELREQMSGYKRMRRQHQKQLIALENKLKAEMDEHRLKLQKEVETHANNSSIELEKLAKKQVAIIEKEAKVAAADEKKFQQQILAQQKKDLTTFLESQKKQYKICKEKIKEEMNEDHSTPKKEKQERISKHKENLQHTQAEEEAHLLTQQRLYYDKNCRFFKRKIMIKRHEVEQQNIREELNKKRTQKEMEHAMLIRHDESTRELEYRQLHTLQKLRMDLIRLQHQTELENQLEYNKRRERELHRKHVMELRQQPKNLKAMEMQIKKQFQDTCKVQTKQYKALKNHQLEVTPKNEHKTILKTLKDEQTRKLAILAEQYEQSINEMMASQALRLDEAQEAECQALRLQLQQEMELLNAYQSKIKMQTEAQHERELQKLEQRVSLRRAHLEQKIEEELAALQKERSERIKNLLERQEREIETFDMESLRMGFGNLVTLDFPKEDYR
T26 sequence (P08581 25-1390): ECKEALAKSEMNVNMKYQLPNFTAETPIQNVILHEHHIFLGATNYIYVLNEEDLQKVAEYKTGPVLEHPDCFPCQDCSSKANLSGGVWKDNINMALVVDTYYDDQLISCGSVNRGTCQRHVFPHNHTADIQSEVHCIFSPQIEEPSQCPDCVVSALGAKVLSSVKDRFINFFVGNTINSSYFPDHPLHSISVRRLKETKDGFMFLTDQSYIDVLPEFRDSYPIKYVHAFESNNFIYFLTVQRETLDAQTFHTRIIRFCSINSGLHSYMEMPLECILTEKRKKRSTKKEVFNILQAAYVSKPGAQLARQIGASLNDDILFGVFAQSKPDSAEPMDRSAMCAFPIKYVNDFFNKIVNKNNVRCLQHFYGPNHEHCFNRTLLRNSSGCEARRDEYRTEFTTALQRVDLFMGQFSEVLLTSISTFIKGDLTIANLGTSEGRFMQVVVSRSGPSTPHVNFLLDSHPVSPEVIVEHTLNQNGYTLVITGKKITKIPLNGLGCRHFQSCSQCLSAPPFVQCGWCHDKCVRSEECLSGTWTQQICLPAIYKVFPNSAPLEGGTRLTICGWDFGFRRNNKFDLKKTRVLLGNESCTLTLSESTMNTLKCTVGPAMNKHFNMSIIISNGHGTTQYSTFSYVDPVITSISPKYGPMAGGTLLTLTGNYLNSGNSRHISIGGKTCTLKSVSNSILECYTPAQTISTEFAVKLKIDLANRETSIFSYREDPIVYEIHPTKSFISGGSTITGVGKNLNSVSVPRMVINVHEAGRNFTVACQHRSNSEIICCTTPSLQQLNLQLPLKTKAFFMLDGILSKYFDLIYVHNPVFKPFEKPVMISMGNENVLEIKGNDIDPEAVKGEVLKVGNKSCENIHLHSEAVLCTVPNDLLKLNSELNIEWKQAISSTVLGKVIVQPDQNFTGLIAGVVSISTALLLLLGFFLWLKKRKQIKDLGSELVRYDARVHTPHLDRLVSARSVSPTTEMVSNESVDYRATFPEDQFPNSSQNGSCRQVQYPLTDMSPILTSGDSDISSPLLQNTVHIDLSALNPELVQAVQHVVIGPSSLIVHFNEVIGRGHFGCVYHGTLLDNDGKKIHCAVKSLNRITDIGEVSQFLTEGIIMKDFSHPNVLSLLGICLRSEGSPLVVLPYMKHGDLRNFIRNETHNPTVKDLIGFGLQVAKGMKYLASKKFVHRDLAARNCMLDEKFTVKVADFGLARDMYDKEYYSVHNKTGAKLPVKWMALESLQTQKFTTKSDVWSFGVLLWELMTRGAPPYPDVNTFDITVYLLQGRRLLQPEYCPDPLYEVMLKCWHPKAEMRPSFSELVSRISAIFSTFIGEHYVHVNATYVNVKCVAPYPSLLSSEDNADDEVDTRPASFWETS
T16 sequence (Q16539 whole entry): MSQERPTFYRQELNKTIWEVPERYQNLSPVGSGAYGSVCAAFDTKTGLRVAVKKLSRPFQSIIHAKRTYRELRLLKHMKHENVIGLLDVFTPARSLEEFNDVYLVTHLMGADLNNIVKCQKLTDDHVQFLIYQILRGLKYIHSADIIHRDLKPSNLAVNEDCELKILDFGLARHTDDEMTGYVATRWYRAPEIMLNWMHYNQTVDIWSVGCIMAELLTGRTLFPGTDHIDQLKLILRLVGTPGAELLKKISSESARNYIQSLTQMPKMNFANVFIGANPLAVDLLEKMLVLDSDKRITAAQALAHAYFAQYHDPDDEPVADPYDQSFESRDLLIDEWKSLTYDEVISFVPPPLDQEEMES
T4 sequence (Q16566 whole entry): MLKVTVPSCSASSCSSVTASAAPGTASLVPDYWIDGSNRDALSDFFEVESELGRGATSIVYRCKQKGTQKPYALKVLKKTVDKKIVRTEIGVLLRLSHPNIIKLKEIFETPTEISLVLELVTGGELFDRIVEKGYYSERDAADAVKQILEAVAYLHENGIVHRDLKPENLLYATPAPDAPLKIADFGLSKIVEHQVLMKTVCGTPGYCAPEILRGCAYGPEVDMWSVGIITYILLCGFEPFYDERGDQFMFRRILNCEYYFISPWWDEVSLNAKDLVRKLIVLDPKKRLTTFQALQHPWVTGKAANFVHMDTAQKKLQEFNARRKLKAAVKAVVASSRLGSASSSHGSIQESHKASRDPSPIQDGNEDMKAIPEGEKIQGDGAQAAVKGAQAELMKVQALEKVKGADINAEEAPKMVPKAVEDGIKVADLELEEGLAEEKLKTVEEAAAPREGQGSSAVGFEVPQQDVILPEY

CN(C)Cc1cccc(Nc2ncc(Cl)c(-c3csc(C(=O)NN4CCOCC4)c3)n2)c1 [SKLB-D18, 4-(5-chloro-2-((3-((dimethylamino)methyl)phenyl)amino)pyrimidin-4-yl)-N-morpholinothiophene-2-carboxamide]
inhibition at 1 µM (Txk(h)): 26% | inhibition at 1 µM (CDK2/cyclinE(h)): 48% | inhibition at 1 µM (GCK(h)): 57% | inhibition at 1 µM (CaMKIV(h)): 24% | inhibition at 1 µM (MEKK3(h)): 8% | inhibition at 1 µM (ASK1(h)): -5% | inhibition at 1 µM (GRK4(h)): 16% | inhibition at 1 µM (MAPK1(h)): 94% | inhibition at 1 µM (LATS2(h)): 37% | inhibition at 1 µM (SBK1(h)): 55% | inhibition at 1 µM (TSSK3(h)): 53% | inhibition at 1 µM (EGFR(h)): -10% | inhibition at 1 µM (CDK14/cyclinY(h)): 58% | inhibition at 1 µM (SAPK3(h)): 25% | inhibition at 1 µM (Plk3(h)): 6% | inhibition at 1 µM (SAPK2a(h)): 9% | inhibition at 1 µM (Aurora-C(h)): 66% | inhibition at 1 µM (CK1γ2(h)): 18% | inhibition at 1 µM (SIK3(h)): 22% | inhibition at 1 µM (A-Raf(h)): 63% | inhibition at 1 µM (ROCK-I(h)): 10% | inhibition at 1 µM (FGFR1(h)): 70% | inhibition at 1 µM (ALK6(h)): 10% | inhibition at 1 µM (DMPK(h)): 8% | inhibition at 1 µM (TAO3(h)): 36% | inhibition at 1 µM (Met(h)): 61% | inhibition at 1 µM (NEK3(h)): 63% | inhibition at 1 µM (MYO3B(h)): 4% | inhibition at 1 µM (GRK5(h)): -1% | inhibition at 1 µM (PDGFRα(h)): 37% | inhibition at 1 µM (STK32C(h)): 1% | inhibition at 1 µM (PAK2(h)): 12% | inhibition at 1 µM (JNK3(h)): 66% | inhibition at 1 µM (Flt1(h)): 39% | inhibition at 1 µM (PDHK4(h)): 5% | inhibition at 1 µM (TSSK4(h)): 36% | inhibition at 1 µM (PRKG2(h)): 18% | inhibition at 1 µM (PDHK2(h)): 14% | inhibition at 1 µM (PKCμ(h)): 64% | inhibition at 1 µM (MEKK2(h)): 53% | inhibition at 1 µM (AAK1(h)): 58%
